From patent US20250268884A1, “Deuterated Domperidone for Treating Gastroparesis” (CinDome Pharma, Inc., priority 2022, published 2025)

Key:
[1] = test system: adults with idiopathic or diabetic gastroparesis; test: PAGI-SYM questionnaire total and subscale scores, Phase 2a; format: in vivo, human
Method: Subjects were Evaluated as Follows: • Days −28 to −11: Screening procedures were performed. The ANMS GCSI-DD questionnaire was completed daily for at least 14 days prior to randomization (Day 1); • Days −10 to −3: The ANMS GCSI-DD questionnaire was completed daily. A GEBT was performed on a single day within this window, with breath samples obtained twice prior to consumption of a standardized, carbon-13 (^13C)-enriched meal and then at 45, 90, 120, 150, 180, and 240 minutes after meal consumption after an 8-hour fast. […] On Day 14 (±2 days), the PAGI-SYM and Clinical Grading Assessment questionnaires were completed prior to the final dose of study drug. • A GEBT was administered 30 minutes after study drug administration on Day 14 (±2 days). Breath samples were obtained twice prior to ^13C-enriched meal consumption and then at 45, 90, 120, 150, 180, and 240 minutes after meal consumption after an 8-hour fast. If a subject withdrew from the study prior to the Day 14 (±2 days) GEBT, attempts should have been made to perform a GEBT on the last day of study drug administration. Clinical Grading Assessment Scales were also performed.
The PAGI-SYM includes 6 subscales: heartburn/regurgitation, fullness/early satiety, nausea/vomiting, bloating, upper abdominal pain, and lower abdominal pain.

[2] = test system: heart rate in healthy subjects; test: Thorough QT study, placebo-corrected change-from-baseline HR (ΔΔHR); format: in vivo, human
[3] = test system: cardiac repolarization (QTcF) in healthy subjects; details: human, in vivo
healthy subjects = details: in vivo
Method: Categorical T-wave morphology analysis and measurement of PR and QRS intervals were fully performed manually using a semi-automated process in 3 of the 10 ECG replicates at each time point.
Treatment A: 30 mg CIN-102 [representing approximate steady-state therapeutic exposures in subject population]; Treatment B: 100 mg CIN-102 [representing potential steady-state supratherapeutic exposures in subjects]; Treatment C: 400 mg open-label moxifloxacin; Treatment D: CIN-102 placebo. A subject can appear in more than 1 category. The denominator (Total) is defined as the number of subjects or time points in the QT/QTc population for each treatment.

[4] = 10 mg dose, healthy subjects
[5] = 20 mg QD, mean, Safety Population

[2H]c1c([2H])c([2H])c2c([nH]c(=O)n2CCCN2CCC(n3c(=O)[nH]c4cc(Cl)ccc43)CC2)c1[2H] [Deudomperidone, 1-{3-[4-(5-chloro-2-oxo-2,3-dihydro-1H-1,3-benzodiazol-1-yl)piperidin-1yl]propyl}-2,3-dihydro(4,5,6,7-D4)-1H-1,3-benzodiazol-2-one]
PAGI-SYM fullness/early satiety subscale score, Change from baseline to Day 14 [1, 5]: −1.10
PAGI-SYM fullness/early satiety subscale score, Day 14 [1, 5]: 2.32
PAGI-SYM fullness/early satiety subscale score, Percent change from baseline to Day 14 [1, 5]: −31.45%
PAGI-SYM heartburn/regurgitation subscale score, Baseline [1, 5]: 2.68
PAGI-SYM heartburn/regurgitation subscale score, Change from baseline to Day 14 [1, 5]: −1.06
PAGI-SYM heartburn/regurgitation subscale score, Day 14 [1, 5]: 1.62
PAGI-SYM heartburn/regurgitation subscale score, Percent change from baseline to Day 14 [1, 5]: −34.56%
PAGI-SYM lower abdominal pain subscale score, Baseline [1, 5]: 1.93
PAGI-SYM lower abdominal pain subscale score, Change from baseline to Day 14 [1, 5]: −0.40
PAGI-SYM lower abdominal pain subscale score, Day 14 [1, 5]: 1.53
PAGI-SYM lower abdominal pain subscale score, Percent change from baseline to Day 14 [1, 5]: −10.91%
PAGI-SYM nausea/vomiting subscale score, Baseline [1, 5]: 2.49
PAGI-SYM nausea/vomiting subscale score, Change from baseline to Day 14 [1, 5]: −1.20
PAGI-SYM nausea/vomiting subscale score, Day 14 [1, 5]: 1.29
PAGI-SYM nausea/vomiting subscale score, Percent change from baseline to Day 14 [1, 5]: −50.18%
PAGI-SYM total score, Baseline [1, 5]: 2.72
PAGI-SYM total score, Change from baseline to Day 14 [1, 5]: −0.93
PAGI-SYM total score, Day 14 [1, 5]: 1.80
PAGI-SYM total score, Percent change from baseline to Day 14 [1, 5]: −39.03%
PAGI-SYM upper abdominal pain subscale score, Baseline [1, 5]: 2.27
PAGI-SYM upper abdominal pain subscale score, Change from baseline to Day 14 [1, 5]: −0.70
PAGI-SYM upper abdominal pain subscale score, Day 14 [1, 5]: 1.57
PAGI-SYM upper abdominal pain subscale score, Percent change from baseline to Day 14 [1, 5]: −32.81%
PAGI-SYM total and subscale scores at Day 14 ([1]; all deudomperidone treatment groups, placebo also decreased): decreased from baseline
bradycardic outliers ([2]; 30 mg treatment group, at 5 time points): 1
ΔΔHR LS Mean ([2]; 0.5 H Post Dose, 30 mg CIN-102 (Treatment A)): −0.5 bpm
ΔΔHR LS Mean ([2]; 0.5 H Post Dose, 100 mg CIN-102 (Treatment B)): −0.5 bpm
ΔΔHR LS Mean ([2]; 1 H Post Dose, 30 mg CIN-102 (Treatment A)): −1.4 bpm
ΔΔHR LS Mean ([2]; 1 H Post Dose, 100 mg CIN-102 (Treatment B)): −1.1 bpm
ΔΔHR LS Mean ([2]; 1.5 H Post Dose, 30 mg CIN-102 (Treatment A)): −1.0 bpm
ΔΔHR LS Mean ([2]; 1.5 H Post Dose, 100 mg CIN-102 (Treatment B)): −0.7 bpm
ΔΔHR LS Mean ([2]; 2 H Post Dose, 30 mg CIN-102 (Treatment A)): 0.4 bpm
ΔΔHR LS Mean ([2]; 2 H Post Dose, 100 mg CIN-102 (Treatment B)): 0.2 bpm
ΔΔHR LS Mean ([2]; 2.5 H Post Dose, 30 mg CIN-102 (Treatment A)): −0.7 bpm
ΔΔHR LS Mean ([2]; 2.5 H Post Dose, 100 mg CIN-102 (Treatment B)): −0.8 bpm
ΔΔHR LS Mean ([2]; 3 H Post Dose, 30 mg CIN-102 (Treatment A)): −1.4 bpm
ΔΔHR LS Mean ([2]; 3 H Post Dose, 100 mg CIN-102 (Treatment B)): −1.0 bpm
ΔΔHR LS Mean ([2]; 4 H Post Dose, 30 mg CIN-102 (Treatment A)): 0.0 bpm
ΔΔHR LS Mean ([2]; 4 H Post Dose, 100 mg CIN-102 (Treatment B)): 0.1 bpm
ΔΔHR LS Mean ([2]; 5 H Post Dose, 30 mg CIN-102 (Treatment A)): −0.3 bpm
ΔΔHR LS Mean ([2]; 5 H Post Dose, 100 mg CIN-102 (Treatment B)): −0.8 bpm
ΔΔHR LS Mean ([2]; 6 H Post Dose, 30 mg CIN-102 (Treatment A)): −0.2 bpm
ΔΔHR LS Mean ([2]; 6 H Post Dose, 100 mg CIN-102 (Treatment B)): −0.5 bpm
ΔΔHR LS Mean ([2]; 8 H Post Dose, 30 mg CIN-102 (Treatment A)): 0.7 bpm
ΔΔHR LS Mean ([2]; 8 H Post Dose, 100 mg CIN-102 (Treatment B)): −0.9 bpm
ΔΔHR LS Mean ([2]; 12 H Post Dose, 30 mg CIN-102 (Treatment A)): −0.5 bpm
ΔΔHR LS Mean ([2]; 12 H Post Dose, 100 mg CIN-102 (Treatment B)): −0.8 bpm
ΔΔHR LS Mean ([2]; 24 H Post Dose, 30 mg CIN-102 (Treatment A)): 1.1 bpm
ΔΔHR LS Mean ([2]; 24 H Post Dose, 100 mg CIN-102 (Treatment B)): 0.1 bpm
ΔΔHR LS Mean ([2]; 36 H Post Dose, 30 mg CIN-102 (Treatment A)): 0.5 bpm
ΔΔHR LS Mean ([2]; 36 H Post Dose, 100 mg CIN-102 (Treatment B)): −0.4 bpm
ΔΔHR LS Mean ([2]; 48 H Post Dose, 30 mg CIN-102 (Treatment A)): 0.9 bpm
ΔΔHR LS Mean ([2]; 48 H Post Dose, 100 mg CIN-102 (Treatment B)): 0.5 bpm
tachycardic outliers ([2]; across treatment periods): no tachycardic outliers
mean ΔΔHR, by-time point analysis ([2]; both dose levels, all post-dose time points): below 10 bpm
estimated slope of concentration-QTc relationship, Model B [3]: 0.79 ms per ng/mL
plasma concentration up to which an effect on ΔΔQTcF exceeding 10 ms can be excluded [3]: ~92 ng/mL
treatment effect-specific intercept, Model B [3]: -0.03 ms
PR or QRS outliers (healthy subjects): no PR or QRS outliers
treatment-emergent U waves (healthy subjects): no treatment-emergent U waves
Cmax lower than the same oral dose domperidone [4]: approximately 50%
